From ChEMBL document CHEMBL1201862, “PubChem BioAssay data set” (2004) come the findings set out here.

Test systems include OVCAR-5; NCI-H522; KM12; SNB-78; EKVX; U-251; OVCAR-3; SF-295; CCRF-CEM; SNB-19; DMS-114; COLO 205; SF-268; SNB-75.
Assay in all cases: inhibition of tumour cell growth, NCI panel, 48 h

SMILES strings stand for the structures.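 Where inhibition never reached the appropriate level, the endpoint shown equals the highest concentration tested. Otherwise, values were interpolated linearly from a five-concentration, 48-hour dose response in 96-well plates. Abbreviation: GI50, concentration required for 50% inhibition of growth.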 Calls of active or inactive are those of the source. Rule as the data show it: active = GI50 up to about 1.1 µM and inactive = higher.

As for `CCOC(=O)c1ccc(/N=N\c2ccc(N(CCC#N)CCC#N)cc2C)cc1`, the GI50 with OVCAR-5 is > 100 µM (inactive); in the test with NCI-H522, 30.4 µM (inactive); with KM12, > 100 µM (inactive); in the test on SNB-78 it was > 100 µM (inactive); with EKVX, > 100 µM (inactive); in the test on U-251 it was > 100 µM (inactive). Besides, the GI50 in the test with OVCAR-3, in the test with SF-295, with CCRF-CEM, in the test on SNB-19, in the test on DMS-114 and in the test with COLO 205 was > 100 µM (inactive) each time.
With `Cc1cccc(C)c1NC(=O)C(=O)C(C(=O)c1ccccc1-c1ccccc1)C1OC(=O)c2ccccc21` (configuration not stated), the GI50 in the test on OVCAR-5 was 23.2 µM (inactive); in the test on SF-268, 23.7 µM (inactive); in the test with NCI-H522, 10.9 µM (inactive); in the test with KM12 it was 20.9 µM (inactive); with SNB-78, 24.8 µM (inactive); in the test on EKVX, 26.3 µM (inactive). Also, the GI50 is 14.2 µM (inactive) in the test on U-251; 17.1 µM (inactive) with OVCAR-3; 31.3 µM (inactive) in the test with SF-295; 19.4 µM (inactive) in the test on CCRF-CEM; 13.7 µM (inactive) in the test on DMS-114; 22 µM (inactive) in the test with SNB-75. Moreover, the GI50 with COLO 205 is 19.2 µM (inactive).
In the case of `CCC(O)CCCCCCCCCCCCCCC(=O)O` (configuration not stated), the GI50 with OVCAR-5 is > 100 µM (inactive); with SF-268 it was > 100 µM (inactive); with NCI-H522 it was > 100 µM (inactive); in the test on KM12 it was 61.8 µM (inactive); in the test with SNB-78, > 100 µM (inactive); in the test with EKVX, > 100 µM (inactive). Also, the GI50 in the test on U-251, in the test with OVCAR-3, in the test with SF-295, with CCRF-CEM, with SNB-19 and in the test on DMS-114 was > 100 µM (inactive) in each case. Moreover, the GI50 with SNB-75 and in the test on COLO 205 was > 100 µM (inactive) in each case.
As for `CC(N)C(C)c1ccccc1` (configuration not stated), the GI50 in the test on OVCAR-5, in the test on SF-268, in the test on NCI-H522, in the test on KM12, with SNB-78 and in the test with EKVX was > 100 µM (inactive) throughout. Moreover, the GI50 in the test on U-251, with OVCAR-3, in the test on SF-295, in the test with CCRF-CEM, in the test on SNB-19 and with DMS-114 was > 100 µM (inactive) each time. Besides, the GI50 in the test with SNB-75 and in the test with COLO 205 was > 100 µM (inactive) throughout.
With `Nc1c(-c2ccc(Cl)cc2)[n+]([O-])c2ccccc2[n+]1[O-]`, the GI50 with OVCAR-5 is > 100 µM (inactive); in the test with SF-268 it was 59.8 µM (inactive); in the test with NCI-H522, 25.3 µM (inactive); with KM12, > 100 µM (inactive); in the test on SNB-78, > 100 µM (inactive); in the test on EKVX, > 100 µM (inactive). Also, the GI50 with U-251 was 62.2 µM (inactive); in the test on OVCAR-3, 67.3 µM (inactive); with SF-295 it was 87.7 µM (inactive); in the test with CCRF-CEM, 54.5 µM (inactive); with SNB-19, 34.8 µM (inactive); in the test with DMS-114, 46.1 µM (inactive). Besides, the results for the GI50 in the test on SNB-75 and with COLO 205 were 67.3 µM (inactive) and > 100 µM (inactive), respectively.
Turning to `CCOC(=O)c1ccc(NC(=O)SCCC(=O)O)cc1`, the GI50 in the test with OVCAR-5 is > 100 µM (inactive); in the test on SF-268 it was 0.426 µM (active); with KM12, > 100 µM (inactive); in the test on SNB-78, > 100 µM (inactive); in the test on EKVX it was 0.841 µM (active); in the test with U-251, > 100 µM (inactive). For the same molecule, the GI50 is > 100 µM (inactive) in the test on OVCAR-3; > 100 µM (inactive) in the test with SF-295; > 100 µM (inactive) in the test with CCRF-CEM; > 100 µM (inactive) with SNB-19; > 100 µM (inactive) in the test on DMS-114; < 0.01 µM (active) in the test on SNB-75. Moreover, the GI50 with COLO 205 is > 100 µM (inactive).
Consider `CN(C)c1ccc(C(C#N)NNC(=O)Cc2ccccc2)cc1` (configuration not stated), for which the GI50 in the test on OVCAR-5, with SF-268, with NCI-H522, in the test with KM12, in the test with SNB-78 and in the test with U-251 was > 100 µM (inactive) throughout. For the same molecule, the GI50 in the test with OVCAR-3, with SF-295, with CCRF-CEM, with DMS-114, with SNB-75 and with COLO 205 was > 100 µM (inactive) throughout.
For `[N-]=[N+]=Nc1ccccc1Oc1ccccc1`, the GI50 in the test on OVCAR-5, in the test with SF-268, with NCI-H522, in the test with KM12, in the test with SNB-78 and in the test on EKVX was > 100 µM (inactive) in each case. The GI50 in the test on U-251, in the test on OVCAR-3, with SF-295, with SNB-19, with DMS-114 and with SNB-75 was > 100 µM (inactive) throughout. Also, the GI50 with COLO 205 is > 100 µM (inactive).
Turning to `O=C1C(=O)N(c2ccc(Cl)cc2Cl)C(=O)C(=O)C1c1nc2ccccc2o1`, the GI50 in the test with OVCAR-5, in the test with SF-268, with NCI-H522, with KM12, in the test with SNB-78 and in the test on EKVX was > 100 µM (inactive) throughout. In addition, the GI50 is > 100 µM (inactive) in the test with U-251; > 100 µM (inactive) in the test on OVCAR-3; > 100 µM (inactive) in the test on SF-295; 93.8 µM (inactive) in the test on CCRF-CEM; > 100 µM (inactive) with SNB-19; > 100 µM (inactive) in the test with SNB-75. Moreover, the GI50 in the test with COLO 205 was > 100 µM (inactive).
For `COC(=O)c1cc(-c2ccc(OC)c(OC)c2)oc1-c1ccc(OC)c(OC)c1`, the GI50 in the test on OVCAR-5 was 36.1 µM (inactive); in the test with SF-268 it was 49.7 µM (inactive); with KM12 it was 41.6 µM (inactive); in the test on SNB-78 it was 31.7 µM (inactive); in the test on EKVX it was 52.4 µM (inactive); in the test on U-251, 30.6 µM (inactive). In addition, the GI50 with OVCAR-3 was 42.5 µM (inactive); in the test on SF-295, 23.8 µM (inactive); in the test with CCRF-CEM, > 100 µM (inactive); with DMS-114 it was 31.9 µM (inactive); with SNB-75 it was 33.5 µM (inactive); with COLO 205 it was 19.5 µM (inactive).
With `CCOC(=O)c1cnc2c(ccc3ncccc32)c1OCC`, the GI50 in the test on OVCAR-5 was > 100 µM (inactive); in the test on SF-268, > 100 µM (inactive); in the test on NCI-H522, > 100 µM (inactive); in the test with KM12, > 100 µM (inactive); in the test on SNB-78, > 100 µM (inactive); in the test on EKVX, 84.3 µM (inactive). Also, the GI50 in the test with U-251 was > 100 µM (inactive); with OVCAR-3, > 100 µM (inactive); in the test with CCRF-CEM it was 59.6 µM (inactive); in the test on SNB-19, > 100 µM (inactive); in the test with DMS-114, > 100 µM (inactive); with SNB-75, > 100 µM (inactive). The GI50 in the test with COLO 205 was > 100 µM (inactive).
As to `CC1=NN(c2ccccc2)C(=O)C1/N=N/c1ccc(Br)c(C)c1` (configuration not stated), the GI50 is > 100 µM (inactive) with OVCAR-5; > 10 µM (inactive) with SF-268; > 100 µM (inactive) in the test with KM12; > 100 µM (inactive) in the test with SNB-78; > 100 µM (inactive) in the test on EKVX; > 100 µM (inactive) in the test on U-251. In addition, the GI50 in the test with OVCAR-3 was > 100 µM (inactive); in the test on SF-295 it was > 100 µM (inactive); with CCRF-CEM, 55.7 µM (inactive); in the test on SNB-19 it was > 100 µM (inactive); in the test on DMS-114, > 100 µM (inactive); with SNB-75, > 100 µM (inactive). In the test with COLO 205, the GI50 is > 100 µM (inactive).
Consider `O=C1NC2C(CCO)CC=C[C@H]2c2cc3c(cc21)OCO3` (some centres not stated), for which the GI50 in the test with SF-268, with NCI-H522, in the test on KM12, in the test with SNB-78, with EKVX and with U-251 was > 100 µM (inactive) each time. For the same molecule, the GI50 in the test with OVCAR-3, with SF-295, with CCRF-CEM, with SNB-19, in the test on DMS-114 and in the test on SNB-75 was > 100 µM (inactive) throughout. Further, the GI50 in the test on COLO 205 is > 100 µM (inactive).
Turning to `CC(C)(C)NC(=O)C12C3C4C1C1C2C3C41I` (configuration not stated), the GI50 in the test on OVCAR-5, in the test on NCI-H522, with KM12, in the test on SNB-78, with U-251 and in the test on SF-295 was > 100 µM (inactive) throughout. Moreover, the GI50 with CCRF-CEM, in the test on SNB-19, with DMS-114 and in the test with COLO 205 was > 100 µM (inactive) in each case.
For `Cc1cc(=O)n2c(cc3cccccc32)n1`, the GI50 with OVCAR-5, in the test with SF-268, in the test with NCI-H522, in the test on KM12, in the test on SNB-78 and with EKVX was > 100 µM (inactive) each time. In addition, the GI50 in the test with U-251, with OVCAR-3, in the test with SF-295, in the test with CCRF-CEM, in the test with SNB-19 and in the test on SNB-75 was > 100 µM (inactive) each time. Also, in the test on COLO 205, the GI50 is > 100 µM (inactive).
